Results from article PMC5572722, “Dimerization in tailoring uptake efficacy of the HSV-1 derived membranotropic peptide gH625” (Scientific Reports, 2017).
Positions of bridges follow the written chain, without caps; N, C: chain ends. Residues, ends and D or L forms follow the SMILES beside them. Chains are numbered I, II in the order given. No end group written: not given here.

Columns and labels:
[1] = Peptide aggregation, Thioflavin T (ThT) fluorescence; assay type: physicochemical; conditions: ThT 25 μM, 0.1 mM DOPG/Chol 60/40 LUVs, 100 mM NaCl, 10 mM Tris–HCl pH 7.4, 25 °C
Experimental: Figure 4 Panel A reports the quenching of tryptophan by acrylamide. Stern-Volmer plots of acrylamide quenching of gH625, gH625-H7, gH625-G7 in buffer (closed symbols) and in LUVs composed of DOPG/Chol 60/40 (mol/mol) (open symbols). Peptide concentration is 4 μM. Panel B reports the […] as a function of the peptide/lipid ratio of gH625, gH625-H7, gH625-G7 in buffer (closed symbols) and in 0.1 mM LUVs composed of DOPG/Chol 60/40 (mol/mol) (open symbols).
The three peptides are not aggregated in buffer as evidenced by the fact that the fluorescence remained unaltered after the addition of the peptides (see closed symbols). On the contrary, they all caused a progressive aggregation in LUVs as the fluorescence change increased dramatically.
Peptide aggregation was monitored using ThioflavinT (ThT), which combines rapidly with aggregated peptides producing a new excitation maximum at 450 nm (slit width, 5 nm) and an enhanced emission at 482 nm (slit width, 5 nm)[43]. This experiment was conducted in LUVs (final phospholipid concentration of 0.1 mM) and buffer containing 25 μM ThT in 100 mM NaCl, 10 mM Tris–HCl, pH 7.4. Fluorescence was measured before and after the addition of peptides. In particular, we tested the following peptide concentrations 0.005, 0.01, 0.015, 0.02, 0.03, 0.04, 0.05 and 0.07 mM at 25 °C. Aggregation (A) was determined according to the following equation7 %A=(Ff−F0)/(Fmax−F0)×100 where Ff is the value of fluorescence after peptide addition, F0 the initial fluorescence in the absence of peptide and Fmax is the fluorescence maximum obtained immediately after peptide addition. Kinetic data were obtained at a concentration of 4 μM.

[2] = Surface plasmon resonance binding to lipid bilayer, L1 chip, two-state model; conditions: affinity constant of second step, K2 = ka2/kd2
Text: To investigate the mode of action of gH625-H7 and gH625-G7 and for comparisons with gH625[6], we used SPR. In a previous paper[7] we also reported the data for two control peptides: the melittin and the HIV fusion peptide (gp41-FP). Figure 6 reports the obtained sensorgrams of the binding and an increase of the RU signal intensity as a function of the peptide concentration can be observed. […] In particular, all the sensorgrams obtained for gH625[7] and gH625-G7 indicate the binding to the lipid surfaces is characterized by an initial fast association process which then slows down considerably towards the end of the peptide injection. The dissociation follows a similar trend, characterized by the signal falling rapidly at the end of injection when the peptide is no longer present and the buffer flow removes free or weekly bound peptide.
The average values for the rate constants obtained with the two-state model analysis are reported in Table 4 along with the affinity constant values (K A). The data clearly indicate the main influence on the overall binding constant of the fast association rate and slow dissociation rate of the first step.
We used a BIAcore 3000 analytical system (Biacore, Uppsala, Sweden) equipped with a L1 sensor chip which contains hydrophobic alkanethiol chains, with exposed polar head groups; a lipid bilayer was created by introducing liposomes to the chip. SUVs composed by DOPG/Chol (60/40) (80 μL, 0.5 mM) were applied to the chip surface at a flow rate of 2 μL/min. […] BSA was used as a negative control (25 μL, 50 μL/min […] in PBS) to confirm complete coverage of the nonspecific binding sites. Several sensorgrams were obtained with 30 μL of the peptide solutions injected at a flow rate of 5 μL/min, followed by PBS for 15 min to allow peptide dissociation. […]
Kinetic data were assessed through the χ^2 values, plots of the residuals from the model fitting and standard deviations. […]

[3] = lipid 0.1 mM, 25 °C, outer NBD reduced with 100 mM dithionite, average of three experiments
Experimental: The extent of lipid mixing between only the inner monolayers of vesicles in solution, labelled with NBD and Rho, was determined adding an aqueous reducing agent (dithionite) which eliminated the NBD fluorescence from the vesicle membranes’ outer monolayer.
Figure 2 Inner monolayer in DOPC/Chol 60/40 (mol/mol) (A) and DOPG/Chol 60/40 (mol/mol) (B). […] Lipid concentration is 0.1 mM. Percentage of inner monolayer fusion as a function of the peptide/lipid ratio is reported and each trace represents an average of three independent experiments.
Membrane fusion was monitored by the fluorescence resonance energy transfer assay (FRET)[70] at 25 °C. Two populations of LUVs, one labelled with 0.6 mol% of NBD (donor) and Rho (acceptor) and one unlabelled were mixed and the variation in NBD fluorescence due to membrane fusion was determined. After the addition of aliquots of peptides the change in donor emission (excitation wavelength 465 nm, emission wavelength 530 nm) was monitored. […] The 100% of fusion was determined upon the addition of Triton X-100 (0.05% v/v). All results are an average of at least three experiments. A cut off filter at 515 nm was used.
The dithionite was removed through size exclusion chromatography, Sephadex G-50 DNA Grade, (GE Healthcare, Pharmacia, Uppsala, Sweden) with buffer containing 10 mM TRIS, 100 mM NaCl, and 1 mM EDTA, pH 7.4.

Row | Molecule | peptide aggregation in LUVs [1] | K2 [2] | fusion of the inner monolayer, DOPC/Chol LUVs [3] | fusion of the inner monolayer, DOPG/Chol LUVs [3]
1 | CC[C@H](C)[C@H](NC(=O)[C@H](CC(C)C)NC(=O)[C@H](C)NC(=O)[C@H](CC(N)=O)NC(=O)[C@H](Cc1ccc(O)cc1)NC(=O)[C@H](Cc1c[nH]cn1)NC(=O)[C@H](C)NC(=O)[C@H](Cc1c[nH]c2ccccc12)NC(=O)[C@H](CCCNC(=N)N)NC(=O)[C@@H](NC(=O)[C@H](CC(C)C)NC(=O)[C@@H](NC(=O)[C@H](CO)NC(=O)[C@H](C)NC(=O)[C@H](CC(C)C)NC(=O)CNC(=O)[C@@H](N)Cc1c[nH]cn1)[C@@H](C)O)[C@@H](C)O)C(=O)N[C@@H](CCCNC(=N)N)C(=O)N[C@@H](C)C(=O)N[C@@H](Cc1ccccc1)C(N)=O [gH625] (H-HGLASTLTRWAHYNALIRAF-NH2) | lower aggregation at low peptide/lipid ratio | 0.41 | only a small fusion | –
2 | I: HGLASTLTRWAHYNALIRAFGCGKKKK-NH2 / II: HGLASTLTRWAHYNALIRAFGCGKKKK-NH2 (disulfide I:22-II:22) [gH625-H7] | oligomerize significantly | 3.89 | complete fusion | complete fusion
3 | CC[C@H](C)[C@H](NC(=O)[C@H](CC(C)C)NC(=O)[C@H](C)NC(=O)[C@H](CC(N)=O)NC(=O)[C@H](Cc1ccc(O)cc1)NC(=O)[C@H](Cc1c[nH]cn1)NC(=O)[C@H](C)NC(=O)[C@H](Cc1c[nH]c2ccccc12)NC(=O)[C@H](CCCNC(=N)N)NC(=O)[C@@H](NC(=O)[C@H](CC(C)C)NC(=O)[C@@H](NC(=O)[C@H](CO)NC(=O)[C@H](C)NC(=O)[C@H](CC(C)C)NC(=O)CNC(=O)[C@@H](N)Cc1c[nH]cn1)[C@@H](C)O)[C@@H](C)O)C(=O)N[C@@H](CCCNC(=N)N)C(=O)N[C@@H](C)C(=O)N[C@@H](Cc1ccccc1)C(=O)NCC(=O)NCC(=O)NCC(=O)N[C@@H](CCCCN)C(=O)N[C@@H](CCCCN)C(=O)N[C@@H](CCCCN)C(=O)N[C@@H](CCCCN)C(N)=O [gH625-G7] (H-HGLASTLTRWAHYNALIRAFGGGKKKK-NH2) | oligomerize significantly | 5.72 | only a small fusion | –
